Where “and” joins values, the source holds several entries; their conditions need not be identical. Equal values may be shown once.
Key:
[1] = instrument: DT, single field, calibrated with Agilent tune mix (Agilent)
[2] = instrument: DT, single field, calibrated with Agilent tune mix (Agilent); remark: listed apart in the source

Row | collision cross section (N2) ([2]; [M+H]+) | collision cross section (N2) ([2]; [M-H]-) | SMILES | also measured
1 |  |  | CCCCC/C=C\C/C=C\CCCCCCCCCCCC(=O)O[C@H](COC(=O)CCCCCCC/C=C\CCCCC)COP(=O)(O)O[C@H]1C(O)C(O)C(O)[C@@H](O)C1O (stereo not given in full) [PI(37:3)] | collision cross section (N2) ([1]; [M+NH4]+): 301.4 Å²; collision cross section (N2) ([1]; [M+Na]+): 298.9 Å²; collision cross section (N2) ([1]; [M-H]-): 290.1 Å²
2 |  |  | CCCCC/C=C\C/C=C\CCCCCCCCCCCC(=O)O[C@H](COC(=O)CCCCCCCCCCCC)COP(=O)(O)O[C@H]1C(O)C(O)C(O)[C@@H](O)C1O (stereo not given in full) [PI(35:2)] | collision cross section (N2) ([1]; [M+NH4]+): 295.6 Å²; collision cross section (N2) ([1]; [M-H]-): 285.3 Å²
3 |  |  | CCCCC/C=C\C/C=C\CCCCCCCCCC(=O)OC[C@@H](O)COP(=O)(O)OCCN [LPE(20:2)] | collision cross section (N2) ([1]; [M-H]-): 216.4 Å²
4 |  |  | CCCCCCCCCCCCCCCC(=O)OC[C@@H](O)COP(=O)(O)OC[C@H](N)C(=O)O [LPS(16:0)] | collision cross section (N2) ([1]; [M-H]-): 216.4 Å²
5 |  |  | CCCCC/C=C\C/C=C\CCCCCCCC(=O)OC[C@@H](O)COP(=O)([O-])OCC[N+](C)(C)C [LPC(18:2)] | collision cross section (N2) ([1]; [M+HCOO]-): 235.2 Å²; collision cross section (N2) ([1]; [M+H]+): 226.8 Å²; collision cross section (N2) ([1]; [M+Na]+): 231.9 Å²
6 |  |  | CCCCCCCCCCCCCCCC/C=C\OC[C@H](COP(=O)([O-])OCC[N+](C)(C)C)OC(=O)CCCCCCCCCCCCCCC [PC(p34:0)] | collision cross section (N2) ([1]; [M+H]+): 288.3 Å²
7 |  |  | CCCCCCCCCCCCCCCCC(=O)OC[C@@H](O)COP(=O)(O)O[C@H]1C(O)C(O)C(O)[C@@H](O)C1O (stereo not given in full) [LPI(17:0)] | collision cross section (N2) ([1]; [M-H]-): 232.6 Å²
8 |  |  | CCCCCCCC/C=C\CCCCCCCCCC(=O)O[C@H](COC(=O)CCCCCCCCCCCCCC)COP(=O)(O)O[C@H]1C(O)C(O)C(O)[C@@H](O)C1O (stereo not given in full) [PI(35:1)] | collision cross section (N2) ([1]; [M+NH4]+): 298.1 Å²; collision cross section (N2) ([1]; [M-H]-): 286.9 Å²
9 | 140.4 Å² |  | Nc1ccc(C(=O)[O-])cc1 [4-Aminobenzoate] | 
10 | 164.8 Å² |  | O=C(O)c1ccc[n+]([C@@H]2O[C@H](COP(=O)(O)O)[C@@H](O)[C@H]2O)c1 [Nicotinate D-ribonucleotide] | 
11 |  | 201.51 Å² | C[C@H](CCC(=O)O)[C@H]1CC[C@H]2[C@@H]3[C@H](O)C[C@@H]4C[C@H](O)CC[C@]4(C)[C@H]3CC[C@]12C [Chenodeoxycholate] | 
12 | 140.8 Å² | 146.28 Å² | COc1ccc(/C=C/C(=O)O)cc1 [4-Methoxycinnamic acid] | 
13 | 193.6 Å² | 196.42 Å² | Nc1nc(=O)c2c([nH]1)NCC(CNc1ccc(C(=O)N[C@@H](CCC(=O)O)C(=O)O)cc1)=N2 [7,8-Dihydrofolate] | 
14 |  |  | O=P(O)(O)OC[C@H]1OC(O)[C@@H](O)[C@@H](O)[C@@H]1O (stereo not given in full) [Mannose-6-phosphate] | collision cross section (N2) ([2]; [M+Na]+): 155.8 Å²
15 | 138 Å² |  | NC(=O)NCCC[C@H](N)C(=O)O [L-Citrulline] | 
16 | 176.5 Å² |  | O=c1ccn([C@@H]2O[C@H](COP(=O)(O)OP(=O)(O)O)[C@@H](O)[C@H]2O)c(=O)[nH]1 [Uridine 5'-diphosphate] | 
17 |  | 134.53 Å² | O=C(O)/C=C/c1c[nH]c2ccccc12 [Indole-3-acrylic acid] | 
18 |  |  | O=c1nc[nH]c2c1ncn2[C@H]1C[C@H](O)[C@@H](COP(=O)(O)O)O1 [2'-Deoxyinosine 5'-monophosphate] | collision cross section (N2) ([2]; [M+Na-2H]-): 161.59 Å²; collision cross section (N2) ([2]; [M+Na]+): 166.8 Å²
19 |  | 134.65 Å² | O=C(O)CNC(=O)c1ccco1 [2-Furoylglycine] | 
20 | 143.5 Å² |  | CN(C)C(N)=NCCC[C@H](N)C(=O)O [NG,NG-dimethyl-L-arginine] | 
21 |  | 210.05 Å² | CC(C)=CCC[C@@H](C)[C@H]1CC[C@H]2[C@@H]3CC=C4C[C@@H](O)CC[C@]4(C)[C@H]3CC[C@]12C [Desmosterol] | collision cross section (N2) ([2]; [M+H-H2O]+): 199.4 Å²

Row | collision cross section (N2) ([2]; [M+H]+) | collision cross section (N2) ([2]; [M-H]-) | SMILES | also measured
22 | 149.8 Å² | 148.65 Å² | CC(=O)NCCc1c[nH]c2ccc(O)cc12 [N-Acetylserotonin] | 
23 |  | 127.46 Å² | CC(C)[C@H](C(=O)O)[C@@H](O)C(=O)O [3-Isopropylmalate] | 
24 |  |  | NC(=O)CCCCC1CCSS1 (stereo not given) [Lipoamide] | collision cross section (N2) ([2]; [M+Na]+): 150.5 Å²
25 | 130.8 Å² | 128.75 Å² | Cn1cnc2[nH]c(=O)[nH]c(=O)c21 [7-Methylxanthine] | 
26 | 150.5 Å² |  | Cc1ncc(COP(=O)(O)O)c(CO)c1O [Pyridoxine 5-phosphate] | 
27 | 168.2 Å² |  | N[C@@H](CCC(=O)N[C@@H](Cc1ccccc1)C(=O)O)C(=O)O [gamma-Glutamylphenylalanine] | 
28 | 132.9 Å² | 131.77 Å² | CC(=O)NCCCCCN [N-Acetylcadaverine] | 
29 | 183.4 Å² | 183.75 Å² | CC(=O)[C@@]1(O)CC[C@H]2[C@@H]3CCC4=CC(=O)CC[C@]4(C)[C@H]3CC[C@@]21C [17alpha-Hydroxyprogesterone] | 
30 |  |  | O=P(O)(O)OC[C@H]1O[C@H](OP(=O)(O)OP(=O)(O)O)[C@H](O)[C@@H]1O [5-Phospho-alpha-D-ribose 1-diphosphate] | collision cross section (N2) ([2]; [M+Na-2H]-): 161.1 Å²
31 | 182.7 Å² |  | Nc1ncnc2c1ncn2[C@@H]1O[C@H](CSCC[C@H](N)C(=O)O)[C@@H](O)[C@H]1O [S-Adenosyl-L-homocysteine] | 
32 |  | 188.5 Å² | CCCCCCCC/C=C\CCCCCCCCCCCC(=O)O [Erucic acid] | 
33 |  | 134.06 Å² | Cn1c(=O)[nH]c2[nH]c(=O)n(C)c2c1=O [1,7-Dimethyluric acid] | 
34 |  |  | CC(=O)N[C@@H]1C(O)O[C@H](CO)[C@@H](O)[C@@H]1O (stereo not given in full) [N-Acetylmannosamine] | collision cross section (N2) ([2]; [M+Na]+): 149.9 Å²
35 | 127.4 Å² | 126.71 Å² | O=C(O)[C@@H]1CCCCN1 [L-Pipecolic acid] | 
36 |  |  | N[C@H]1C(O)O[C@H](COP(=O)(O)O)[C@@H](O)[C@@H]1O (stereo partly drawn) [D-glucosamine 6-phosphate] | collision cross section (N2) ([2]; [M+Na]+): 156.6 Å²
37 | 174.7 Å² | 164.74 Å² | O=c1[nH]c(=O)c2ncn([C@@H]3O[C@H](COP(=O)(O)O)[C@@H](O)[C@H]3O)c2[nH]1 [Xanthylic acid] | 
38 |  | 141.9 Å² | O=C(O)CCCCCCCCC(=O)O [Sebacic acid] | 
39 |  |  | Cc1cn([C@H]2C[C@H](O)[C@@H](COP(=O)(O)O)O2)c(=O)[nH]c1=O [Deoxythymidine 5'-phosphate] | collision cross section (N2) ([2]; [M+Na]+): 173.1 Å²
40 |  | 137.38 Å² | O=C(O)CCCCCCCC(=O)O [Azelaic acid] | 
41 |  | 170.97 Å² | Nc1ccn([C@H]2C[C@H](O)[C@@H](COP(=O)(O)OP(=O)(O)O)O2)c(=O)n1 [2'-Deoxycytidine diphosphate] | collision cross section (N2) ([2]; [M+Na]+): 174.5 Å²
42 |  | 136.11 Å² | O=C(O)CCc1cccc(O)c1 [3-(3-Hydroxyphenyl)propanoic acid] | 

Row | collision cross section (N2) ([2]; [M+H]+) | collision cross section (N2) ([2]; [M-H]-) | SMILES | also measured
43 | 129.9 Å² | 127.73 Å² | Cc1cc2nc[nH]c2cc1C [Dimethylbenzimidazole] | 
44 |  | 125.4 Å² | O=C(O)c1cccc([O-])c1 [3-Hydroxybenzoate] | 
45 | 146.7 Å² |  | NC(CSCC[C@H](N)C(=O)O)C(=O)O (stereo not given in full) [Allocystathionine] | 
46 |  |  | O=C(O)CC(O)(CC(=O)O)C(=O)O [Citrate] | collision cross section (N2) ([2]; [M+Na]+): 142.4 Å²
47 | 153.5 Å² | 148.31 Å² | C[C@@H](O)[C@@H](O)c1cnc2[nH]c(N)nc(=O)c2n1 [Biopterin] | 
48 |  | 147.55 Å² | Nc1ccc(C(=O)NCC(=O)O)cc1 [Aminohippuric acid] | collision cross section (N2) ([2]; [M+Na]+): 153.7 Å²
49 | 299.4 Å² | 298.79 Å² | CCCCCCCC/C=C\CCCCCCCC(=O)SCCNC(=O)CCNC(=O)[C@H](O)C(C)(C)COP(=O)(O)OP(=O)(O)OC[C@H]1O[C@@H](n2cnc3c(N)ncnc32)[C@H](O)[C@@H]1OP(=O)(O)O [Oleoyl-CoA] | 
50 |  | 124.48 Å² | Cn1c(=O)[nH]c(=O)c2[nH]cnc21 [3-Methylxanthine] | 
51 |  | 200.7 Å² | C[C@H](CCC(=O)O)[C@H]1CC[C@H]2[C@@H]3CC[C@@H]4C[C@H](O)CC[C@]4(C)[C@H]3C[C@H](O)[C@]12C [Deoxycholic acid] | 
52 |  | 118.99 Å² and 119.14 Å² | O=C(O)CC[C@H](O)C(=O)O [(S)-2-Hydroxyglutarate] | 
53 |  | 126.93 Å² | CCC(=O)NCC(=O)O [Propionylglycine] | 
54 |  | 128.54 Å² | CCCCCC(=O)O [Caproic acid] | 
55 |  | 125.8 Å² | CC(O)CCCC(=O)O (stereo not given) [5-Hydroxyhexanoic acid] | 
56 | 160.1 Å² |  | CC(C)[C@H](NC(=O)CC[C@H](N)C(=O)O)C(=O)O [gamma-Glutamylvaline] | 
57 |  | 126.65 Å² | O=C(O)Cc1ccc(O)cc1 [p-Hydroxyphenylacetic acid] | 
58 | 184.5 Å² |  | C[S+](CC[C@H](N)C(=O)[O-])C[C@H]1O[C@@H](n2cnc3c(N)ncnc32)[C@H](O)[C@@H]1O (stereo not given in full) [S-Adenosylmethionine] | 
59 | 151 Å² | 149.72 Å² | NCCC(=O)N[C@@H](Cc1cnc[nH]1)C(=O)O [L-Carnosine] | 
60 |  | 195.36 Å² | Nc1nc(=O)c2c([nH]1)NCC(CNc1ccc(C(=O)N[C@@H](CCC(=O)O)C(=O)O)cc1)N2 (stereo not given in full) [Tetrahydrofolate] | 
61 | 132.5 Å² | 134.21 Å² | CNCCCC[C@H](N)C(=O)O [N6-Methyl-L-lysine] | 

Row | SMILES | collision cross section (N2) ([2]; [M+H]+) | collision cross section (N2) ([2]; [M-H]-) | also measured
62 | NCCc1ccc(O)cc1 [Tyramine] |  | 129.74 Å² | 

— the C3SDB collision cross section collection
